Test results published in patent US9125384B2, “Mouse having human leukemic stem cell and leukemic non-stem cell amplified therein, and method for production thereof” (RIKEN, priority 2007, dated 2015).
Several values for one entry are separate records, joined by “and”; a condition that tells them apart may be missing. Identical values can stand only once. Entries after “also recorded” stand apart in the source; their conditions may differ.

Assays:
[1] = tested on: human AML cells in BM cavity and endosteal surface; assay: Histology of femoral bone sections after Ara-C (HE, TUNEL, immunostaining); assay type: in vivo, mouse (NOD/SCID/IL2rγ^null) engrafted with human AML; conditions: day 3 after Ara-C injection, anti-hCD34/hCD38/osteopontin staining
Method: Paraformaldehyde-fixed, decalcified, paraffin-embedded sections were prepared from femurs of the recipients transplanted with sorted hCD34^+hCD38^− AML BM cells. Each section was subjected to hematoxylin and eosin (HE) staining. TUNEL staining was performed according to standard procedures using ApopTag peroxidase in situ apoptosis detection kit (Intergene, Purchase, N.Y.) by Biopathology Institute (Oita, Japan). To determine the localization of the CD34^+ cell populations, sections were immunostained with mouse anti-hCD34 antibody (Immunotech, France) and rat anti-mouse osteopontin antibody (Immuno-Biological Laboratories, Tokyo, Japan) were used. For the quantitative localization of LSCs, enodosteal and central regions were defined as the zones within or outside twelve cells from the endosteum, respectively, as described previously (Nilsson, S. K., Johnston, H. M. & Coverdale, J. A. Spatial localization of transplanted hemopoietic stem cells: inferences for the localization of stem cell niches. Blood 97, 2293-2299 (2001)). […] A total of 10,065 cells were counted from femoral and tibial sections. For localization post-engraftment analysis, a total of 24,973 cells were counted using femoral and tibial sections prepared from recipients of BM hCD34^+hCD38^− cells from Cases 4, 10 and 11. […]

[2] = Adverse effect of Ara-C in vivo (hemoglobin, platelet count, plasma AST); conditions: 150 mg/kg Ara-C i.p.; day 8 after injection
Method: Intraperitoneal (i.p.) injection of 150 mg/kg Ara-C (Biogenesis, Poole, UK) was performed in NOD/SCID/IL2rγ^null recipients transplanted with 10^4 purified BM […] cells from Cases 4 (n=2) and 7 (n=4) at 12-16 weeks post-transplantation. PB was obtained at the time of injection (day 0) and every four days thereafter and MNCs were labeled with mouse anti-hCD45 and anti-hCD33 monoclonal antibodies to determine the fraction of hCD45^+hCD33^+ cells using flow cytometry. The number of AML cells/ml PB was determined by multiplying the fraction of PB hCD45^+CD33^+ cells with total PB leukocyte count/ml in each recipient. Hemoglobin concentration, platelet count and plasma aspartate aminotransferase (AST) levels were analyzed prior to and at 8 days after Ara-C administration.

[3] = tested on: human AML cells (hCD45^+hCD33^+); assay: In vivo anti-leukemic cytotoxicity of Ara-C in AML-engrafted NOD/SCID/IL2rγ^null recipients (PB AML cell count); set-up: species or system mouse (NOD/SCID/IL2rγ^null) engrafted with human AML
[4] = tested on: hCD34^+hCD38^− LSCs vs non-stem AML cell fractions; assay: Post-chemotherapy apoptosis analysis of BM AML cell fractions (Annexin V/7AAD flow cytometry); assay type: in vivo, mouse (NOD/SCID/IL2rγ^null) engrafted with human AML; conditions: 150 mg/kg Ara-C i.p.; BM at day 3 after injection; n=3; p<0.05
Method: NOD/SCID/IL2rγ^null recipients transplanted with 10^4-10^5 sorted BM hCD34^+hCD38^− cells from Cases 4, 7 and 11 at 12-20 weeks post-transplantation were injected with 150 mg/kg Ara-C i.p. At day 3 after injection, BM was analyzed for the presence of apoptotic cells by first dividing the hCD34^+hCD38^−, hCD34^+hCD38^+ and hCD34^− fractions within the hCD45^+ gate and quantifying the viable population in each fraction by Annexin V and 7-amino-actinomycin D (7AAD) staining (BD Immunocytometry, San Jose, Calif.). Annexin V^−7AAD^− hCD45^+hCD34^+hCD38^− cells were sorted and 10^3 cells were injected intravenously into irradiated newborn NOD/SCID/IL2rγ^null recipients.

In the case of `Nc1ccn([C@@H]2O[C@H](CO)[C@@H](O)[C@@H]2O)c(=O)n1` [Ara-C, cytosine arabinoside], the “localization of apoptotic and surviving cells in femoral bone sections” value [1] is reported as “preferential killing of cells in the middle of the BM cavity; also recorded: remain at the endosteal surface abutting murine osteoblasts; also recorded: marked segregation of apoptotic cells in the center of the bone marrow cavity”, the “hematologic adverse effects (hemoglobin concentration, platelet count)” value [2] is reported as “Typical hematologic adverse effects; also recorded: anemia and thrombocytopenia in all treated mice” and the “time of nadir of AML count” value ([3]; single 150 mg/kg Ara-C i.p. on day 0, PB) is reported as 8 to 12 days. For the same compound, the “time of recovery of PB AML cell count (relapse)” value ([3]; single 150 mg/kg Ara-C i.p. on day 0, PB, 150 mg/kg) was 28 to 32 days and 16 to 28 days, the “PB AML burden (hCD45^+hCD33^+ cell count per ml of PB)” value ([3]; single 150 mg/kg Ara-C i.p., 12-16 weeks post-transplantation, monitored every four days, 150 mg/kg) was “rapid decline in AML burden; also recorded: markedly reduced” and the “chemosensitivity of hCD34^+hCD38^− LSCs compared with non-stem AML cell fractions (apoptosis)” value [4] was “relative resistance to Ara-C; also recorded: more resistant to Ara-C; also recorded: relatively resistant to Ara-C treatment”.
